Measurements: US20070173462A1, “Treatment of diseases associated with the use of antibiotics” (Optimer Pharmaceuticals, Inc., priority 2004, published 2007)
≈ marks a conversion by molar mass, not a printed value. Read-outs that look alike come from different tables or passages of the source.

How the values were obtained:
C. difficile = experiment: MIC via agar dilution, 110 genetically distinct clinical isolates of C. difficile; assay type: cell-based
toxigenic C. difficile = experiment: Hamster model of clindamycin-induced Clostridium difficile associated diarrhea/colitis; assay type: in vivo, Syrian hamsters; conditions: oral treatment for 7 days; untreated infection uniformly fatal between days two and six
Method: Animals were treated with two oral doses of clindamycin at 100 mg/kg. Three days after the second dose of clindamycin, they were inoculated with toxigenic C. difficile spores. […] Animals were observed daily for the presence or absence of diarrhea. Necropsies were performed on some animals that died during the experiment, and cecal contents were assayed for C. difficile toxin A. Hamsters were monitored for 20 days, and the cumulative mortality during this period was recorded (FIG. 1).

For `Cc1ncc([N+](=O)[O-])n1CCO` [Metronidazole], the “Range (MIC)” value (C. difficile; 110 clinical isolates, agar dilution) was 0.025 to 0.5 µg/mL, the MIC (C. difficile; Clostridioides difficile, isolate ORG ID 61 5930, read-out: MIC) was 0.25 µg/mL (≈ 1.46 µM) and the MIC (C. difficile; Clostridioides difficile, isolate ORG ID 63 6029, read-out: MIC) was 0.25 µg/mL (≈ 1.46 µM). The MIC (C. difficile; Clostridioides difficile, isolate ORG ID 64 5940, read-out: MIC) was 0.25 µg/mL (≈ 1.46 µM), the MIC (C. difficile; Clostridioides difficile, isolate ORG ID 65 5967, read-out: MIC) was 0.25 µg/mL (≈ 1.46 µM) and the MIC (C. difficile; Clostridioides difficile, isolate ORG ID 67 6367, read-out: MIC) was 0.25 µg/mL (≈ 1.46 µM). For the same compound, the MIC (C. difficile; Clostridioides difficile, isolate ORG ID 69 6370, read-out: MIC) was 0.25 µg/mL (≈ 1.46 µM), the MIC (C. difficile; Clostridioides difficile, isolate ORG ID 70 6376, read-out: MIC) was 0.25 µg/mL (≈ 1.46 µM) and the MIC (C. difficile; Clostridioides difficile, isolate ORG ID 71 6379, read-out: MIC) was 0.25 µg/mL (≈ 1.46 µM). It also gave an MIC (C. difficile; Clostridioides difficile, isolate ORG ID 72 6380, read-out: MIC) of 0.25 µg/mL (≈ 1.46 µM), an MIC (C. difficile; Clostridioides difficile, isolate ORG ID 73 6382, read-out: MIC) of 0.25 µg/mL (≈ 1.46 µM) and an MIC (C. difficile; Clostridioides difficile, isolate ORG ID 76 6389, read-out: MIC) of 0.25 µg/mL (≈ 1.46 µM). For the same compound, the MIC (C. difficile; Clostridioides difficile, isolate ORG ID 78 6392, read-out: MIC) was 0.03 µg/mL (≈ 0.175 µM), the MIC (C. difficile; Clostridioides difficile, isolate ORG ID 82 6329, read-out: MIC) was 0.03 µg/mL (≈ 0.175 µM) and the MIC (C. difficile; Clostridioides difficile, isolate ORG ID 84 6331, read-out: MIC) was 0.25 µg/mL (≈ 1.46 µM). It also gave an MIC (C. difficile; Clostridioides difficile, isolate ORG ID 88 6335, read-out: MIC) of 0.25 µg/mL (≈ 1.46 µM), an MIC (C. difficile; Clostridioides difficile, isolate ORG ID 89 6336, read-out: MIC) of 0.5 µg/mL (≈ 2.92 µM) and an MIC (C. difficile; Clostridioides difficile, isolate ORG ID 94 6343, read-out: MIC) of 0.06 µg/mL (≈ 0.351 µM). It also gave an MIC (C. difficile; Clostridioides difficile, isolate ORG ID 98 6350, read-out: MIC) of 0.5 µg/mL (≈ 2.92 µM), an MIC (C. difficile; Clostridioides difficile, isolate ORG ID 100 6353, read-out: MIC) of 0.25 µg/mL (≈ 1.46 µM) and an MIC (C. difficile; Clostridioides difficile, isolate ORG ID 101 6354, read-out: MIC) of 0.06 µg/mL (≈ 0.351 µM). For the same compound, the MIC (C. difficile; Clostridioides difficile, isolate ORG ID 104 6060, read-out: MIC) was 0.25 µg/mL (≈ 1.46 µM), the MIC (C. difficile; Clostridioides difficile, isolate ORG ID 106 6078, read-out: MIC) was 0.25 µg/mL (≈ 1.46 µM) and the MIC (C. difficile; Clostridioides difficile, isolate ORG ID 115 5985, read-out: MIC) was 0.25 µg/mL (≈ 1.46 µM). It also gave an MIC (C. difficile; Clostridioides difficile, isolate ORG ID 120 6057, read-out: MIC) of 0.25 µg/mL (≈ 1.46 µM), an MIC (C. difficile; Clostridioides difficile, isolate ORG ID 121 6072, read-out: MIC) of 0.25 µg/mL (≈ 1.46 µM) and an MIC (C. difficile; Clostridioides difficile, isolate ORG ID 122 6111, read-out: MIC) of 0.25 µg/mL (≈ 1.46 µM). The MIC (C. difficile; Clostridioides difficile, isolate ORG ID A1 1535, read-out: MIC) was 0.25 µg/mL (≈ 1.46 µM), the MIC (C. difficile; Clostridioides difficile, isolate ORG ID AH1 3430, read-out: MIC) was 0.25 µg/mL (≈ 1.46 µM) and the MIC (C. difficile; Clostridioides difficile, isolate ORG ID BE1 4307, read-out: MIC) was 0.25 µg/mL (≈ 1.46 µM). It also gave an MIC (C. difficile; Clostridioides difficile, isolate ORG ID BH1 4506, read-out: MIC) of 0.06 µg/mL (≈ 0.351 µM), an MIC (C. difficile; Clostridioides difficile, isolate ORG ID BN1 1322, read-out: MIC) of 0.25 µg/mL (≈ 1.46 µM) and an MIC (C. difficile; Clostridioides difficile, isolate ORG ID BV1 1183, read-out: MIC) of 0.25 µg/mL (≈ 1.46 µM). For the same compound, the MIC (C. difficile; Clostridioides difficile, isolate ORG ID BX1 4271, read-out: MIC) was 0.25 µg/mL (≈ 1.46 µM), the MIC (C. difficile; Clostridioides difficile, isolate ORG ID CJ1 893, read-out: MIC) was 0.025 µg/mL (≈ 0.146 µM) and the MIC (C. difficile; Clostridioides difficile, isolate ORG ID CN1 667, read-out: MIC) was 0.25 µg/mL (≈ 1.46 µM). The MIC (C. difficile; Clostridioides difficile, isolate ORG ID CP1 5491, read-out: MIC) was 0.25 µg/mL (≈ 1.46 µM), the MIC (C. difficile; Clostridioides difficile, isolate ORG ID D1 1360, read-out: MIC) was 0.25 µg/mL (≈ 1.46 µM) and the MIC (C. difficile; Clostridioides difficile, isolate ORG ID J1 5971, read-out: MIC) was 0.25 µg/mL (≈ 1.46 µM). The MIC (C. difficile; Clostridioides difficile, isolate ORG ID K1 4305, read-out: MIC) was 0.25 µg/mL (≈ 1.46 µM), the MIC (C. difficile; Clostridioides difficile, isolate ORG ID R6 6015, read-out: MIC) was 0.25 µg/mL (≈ 1.46 µM) and the MIC (C. difficile; Clostridioides difficile, isolate ORG ID W1 3931, read-out: MIC) was 0.5 µg/mL (≈ 2.92 µM). For the same compound, the MIC90 (C. difficile; Clostridioides difficile, 110 clinical isolates, agar dilution) was 0.25 µg/mL (≈ 1.46 µM), the MIC (C. difficile; Clostridioides difficile, 110 clinical isolates, agar dilution, read-out: Geometric Mean (MIC)) was 0.15 µg/mL (≈ 0.876 µM) and the “protection from infection (cumulative mortality over 20 days)” value (toxigenic C. difficile) was “protected the animals from infection”.
